Test results: patent publication US20070167402A1, “Product of coprecipitation of sparingly soluble substance and water-soluble polymer and process for producing the same” (Meiji Seika Kaisha, Ltd., priority 2003, published 2007)

Assay: Test 1: Solubility Test (water as test medium, 37° C., HPLC)
Format: physicochemical
Conditions: for solubility in aqueous methyl cellulose or HPMC solution: test medium e.g. 0.5% aqueous methyl cellulose or HPMC solution, compared with value in water (below 3 μg/mL); for solubility (concentration of Compound A in suspension): 37° C., at the point of 30 minutes in Test 1
Description: Each mixture was sampled at several points of time, and each sample was filtered through a membrane filter (Sunprep LCR13-LG, manufactured by Millipore Corp., Japan).
The measurement conditions used for HPLC in Test 1 were as follows: • Detector: Ultraviolet absorptiometer (measurement wavelength: 246 nm) • Column: Stainless steel tube with an inner diameter of 4.6 mm and a length of 25 cm, for 5 μm liquid chromatography, • Column temperature: Fixed temperature at around 40° C. • Mobile phase: Mixture of methanol and water (55:45) • Flow rate: 1 mL/min

solubility (concentration of Compound A in suspension) (water) [µg/mL]	solubility (water, 37 °C, water, thermodynamic from solid, water 37° C., 200 rpm paddles, at 30 minutes after the beginning of the test and after, read-out: concentration of Compound A in solubility test (FIG. 1)) [µg/mL]	Structure (SMILES)	solubility in aqueous methyl cellulose or HPMC solution
2.4	–	COc1cc2[nH]c(=O)c3nn(C(OC(=O)OC(C)C)C(C)C)nc3c(=O)c2cc1OC (single isomer, unassigned) [Comparative Example 2, 2-(1-Isopropoxycarbonyloxy-2-methylpropyl)-7,8-dimethoxy-4(5H), 10-dioxo-2H-1,2,3-triazolo[4,5-c][1]benzazepine]	nearly equal to the above-described value of concentration
0.8	< 3	COc1cc2[nH]c(=O)c3nn(C(OC(=O)OC(C)C)C(C)C)nc3c(=O)c2cc1OC (single isomer, unassigned) [Comparative Example 1, 2-(1-Isopropoxycarbonyloxy-2-methylpropyl)-7,8-dimethoxy-4(5H), 10-dioxo-2H-1,2,3-triazolo[4,5-c][1]benzazepine]	nearly equal to the above-described value of concentration
